Results published in US12697353B2, “Compositions comprising cinnamaldehyde and zinc and methods of using such compositions” (SOCIÉTÉ DES PRODUITS NESTLÉ S.A., priority 2015, dated 2026).

Experiments:
[1] = nose temperature after ingestion in human subjects; type: in vivo; settings: fifteen minutes following ingestion, FIG. 7
Experimental: The nose temperature of the subjects was analyzed over the fifteen minutes following ingestion of the various compounds.

[2] = target: T1, hTRPA1 expressed in CHO cells (Homo sapiens, UniProt O75762); assay: in vitro activity of hTRPA1 expressed in CHO cells, intracellular calcium concentration with a fluorescent dye; type: cell-based; set-up: dose or concentration left out as unconfirmed; settings: according to a dose-response curve
T1 construct: expressed in transfected cells; host or cells: CHO cells

[3] = energy expenditure after ingestion in human subjects; type: in vivo
Experimental: Human subjects were administered placebo, a cooling flavor, capsaicin, or cinnamaldehyde. The energy expenditure was measured over the eighty minutes following ingestion. […] The increased sympathetic activity identified by measuring the facial temperature (increased blood flow on the chin) might explain the increased energy expenditure measured by indirect calorimetry.

[4] = postprandial fat oxidation after ingestion in human subjects; type: in vivo
Experimental: The postprandial fat oxidation was measured over the 90 minutes following ingestion of the various compounds.

[5] = chin temperature after ingestion in human subjects; type: in vivo; settings: eighty minutes following ingestion, FIG. 8
Experimental: The chin temperature of the subjects was measured over the eighty minutes following ingestion of the various compounds.

[6] = insulin sensitivity in mice with chronic ingestion of cinnamaldehyde in a high fat diet; type: in vivo; settings: mice chronically fed a high fat diet containing 0.2 wt % cinnamaldehyde, FIG. 11
Text: The composition can thereby reduce glycemia.

[7] = target: TRPA1 (Homo sapiens, UniProt O75762); settings: read-out: EC50 of TRPA1 activation; cited from earlier work
[8] = at a flavoring level judged significantly less intense than capsaicin

Sequence of TRPA1 (O75762 whole entry, species assumed): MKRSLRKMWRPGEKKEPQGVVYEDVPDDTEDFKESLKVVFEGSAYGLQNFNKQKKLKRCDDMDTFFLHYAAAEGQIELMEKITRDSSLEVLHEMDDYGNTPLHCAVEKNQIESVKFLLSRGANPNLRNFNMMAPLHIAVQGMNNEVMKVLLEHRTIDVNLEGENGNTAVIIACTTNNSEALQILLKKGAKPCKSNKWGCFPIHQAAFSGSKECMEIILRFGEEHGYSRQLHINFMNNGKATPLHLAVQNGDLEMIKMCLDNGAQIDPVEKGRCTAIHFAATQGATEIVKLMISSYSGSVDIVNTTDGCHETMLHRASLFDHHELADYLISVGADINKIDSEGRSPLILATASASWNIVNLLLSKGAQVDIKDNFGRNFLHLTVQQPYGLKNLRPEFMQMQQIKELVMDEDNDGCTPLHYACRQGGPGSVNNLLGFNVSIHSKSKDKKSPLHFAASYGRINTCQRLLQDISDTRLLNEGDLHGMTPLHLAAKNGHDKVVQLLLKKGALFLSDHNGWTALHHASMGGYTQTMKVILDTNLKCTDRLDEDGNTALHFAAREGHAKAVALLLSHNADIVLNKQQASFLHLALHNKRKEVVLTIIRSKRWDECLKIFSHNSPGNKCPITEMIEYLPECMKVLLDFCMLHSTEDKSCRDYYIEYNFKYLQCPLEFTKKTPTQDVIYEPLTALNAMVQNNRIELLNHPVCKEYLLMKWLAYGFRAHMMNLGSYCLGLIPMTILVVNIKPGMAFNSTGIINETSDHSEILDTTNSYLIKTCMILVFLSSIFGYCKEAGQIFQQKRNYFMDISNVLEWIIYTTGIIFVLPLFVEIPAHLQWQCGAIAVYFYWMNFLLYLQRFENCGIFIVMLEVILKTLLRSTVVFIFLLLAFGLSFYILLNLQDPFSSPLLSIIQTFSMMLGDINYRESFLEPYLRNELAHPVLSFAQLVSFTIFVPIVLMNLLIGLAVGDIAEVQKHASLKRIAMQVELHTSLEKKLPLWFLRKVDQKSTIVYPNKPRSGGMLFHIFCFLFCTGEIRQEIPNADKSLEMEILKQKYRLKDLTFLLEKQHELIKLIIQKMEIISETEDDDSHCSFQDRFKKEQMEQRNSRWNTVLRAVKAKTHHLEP
T1 sequence (O75762 whole entry): as the sequence (O75762 whole entry, species assumed) above

In the case of COc1cc(CNC(=O)CCCC/C=C/C(C)C)ccc1O [capsaicin, reference compound], the nose temperature [1] is reported as “increase nose temperatures”.

With O=CC=Cc1ccccc1 [cinnamaldehyde] the “efficacy on hTRPA1 of the positive control C+” value [2] was “maximum efficacy”, the “impact on energy expenditure and sympathetic nervous system activity compared to capsaicin” value [3, 8] was “significantly higher impact” and the “energy expenditure compared to placebo” value ([3]; human subjects, eighty minutes following ingestion, time course and AUC, FIGS. 3 and 4) was “increased”. For the same compound, the “effect on fat oxidation compared to capsaicin” value [4, 8] was “equivalent effect”, the “postprandial fat oxidation compared to placebo” value ([4]; human subjects, 90 minutes following ingestion, time course and AUC, FIGS. 5 and 6) was “maintained at higher levels” and the nose temperature [1] was “increase nose temperatures”. For the same compound, the “chin temperature relative to baseline” value [5] was “increases chin temperature for a prolonged time”, the “insulin sensitivity relative to mice fed the same high fat diet without cinnamaldehyde” value [6] was “improved insulin sensitivity” and the EC50 [7] was about 10 µM.
